According to US20240124470A1, “FIVE-MEMBERED RING DERIVATIVE AND MEDICAL USE THEREOF” (SICHUAN HAISCO PHARMACEUTICAL CO., LTD., priority 2020, published 2024):

Assay: Stability test in mouse liver microsomes
Assay type: in vitro ADME
Description: 3. Stability Test in Mouse Liver Microsomes At 37° C., 1 μM of the test compound was incubated with mouse liver microsomes (0.5 mg/mL) supplemented with NADPH regeneration system for 5, 10, 20, 30 and 60 minutes, and then LC-MS/MS method was used to detect the concentration of the test compound in the generated sample. The half-life (T1/2) and inherent clearance rate (CLint(mic)) of the compound in mouse liver microsome solution were obtained by calculating at the corresponding time points and the remaining percentage of the compound.

N#Cc1ccc(COc2cccc(-c3ccc(Cc4nc5sc(C(=O)O)cc5n4C[C@@H]4CCO4)c(F)c3)n2)c(F)c1 [Compound 6, (S)-2-(4-(6-((4-cyano-2-fluorobenzyl)oxy)pyridin-2-yl)-2-fluorobenzyl)-1-(oxetan-2-ylmethyl)-1H-thieno[2,3-d]imidazole-5-carboxylic acid]
T1/2 ratio of compound 6 to compound DZ-6 (mouse liver microsomes): greater than 2 | half-life at 1 μM (mouse liver microsomes 0.5 mg/mL, 1 μM compound, NADPH, 37° C.): 4.93 h | microsomal CLint at 1 μM (mouse liver microsomes 0.5 mg/mL, 1 μM compound, NADPH, 37° C., read-out: CLint(mic)): 4.69 µL/min/mg
